# Reference: patent publication US20250009891A1, “CONJUGATES OF MONOCYCLIC BETA-LACTAMS AND SIDEROPHORE MIMETICS” (UNIVERSITY OF NOTRE DAME DU LAC, priority 2021, published 2025)
# Where two headings read alike, the source gives them in different places.
# Tests used:
# Gram-negative bacteria [1] = settings: in words, cited from earlier work
# E. coli DCO = assay: In vitro antibacterial assay (MIC); type: cell-based, Escherichia coli; settings: iron deficient media, duplicate assays
# Method: (§1) Antibacterial assay results of new aztreonam derivatives (27, 30, 32 and 37), aztreonam (9a) and earlier data of conjugate 23 are shown in Table 1. The assays were performed using iron deficient media appropriate for screening siderophore conjugates as described previously. […] As expected, none of the compounds were active against the Gram-positive S. aureus. […] Of special interest is the significant inhibitory activity against problematic strains of A. baumannii and P. aeruginosa, including cephalosporinase and carbapenemase producers (A. baumannii TCC 17978 pNT320 and ATCC 17978 pNT165, respectively) which are on the World Health Organization (WHO) list of multi-drug resistant (MDR) pathogens of greatest concern.
# Gram-negative bacteria [2] = assay: Antibacterial activity, summary statements; type: cell-based; settings: in words; for activity against Gram-negative bacteria that are resistant to aztreonam: iron deficient media
# Method: as §1
# [3] = system: A. baumannii ATCC 17978 pNT320 (cephalosporinase producing strain); assay: In vitro antibacterial assay (MIC); type: cell-based, Acinetobacter baumannii; settings: iron deficient media, duplicate assays
# Method: as §1
# A. baumannii ATCC 17961 = assay: In vitro antibacterial assay (MIC); type: cell-based, Acinetobacter baumannii; settings: duplicate assays
# Method: as §1
# [4] = system: A. baumannii ATCC BAA 1797; assay: In vitro antibacterial assay (MIC); type: cell-based, Acinetobacter baumannii; settings: duplicate assays
# Method: as §1
# [5] = system: A. baumannii ATCC 17978 pNT165 (carbapenemase producing strain); assay: In vitro antibacterial assay (MIC); type: cell-based, Acinetobacter baumannii; settings: iron deficient media, duplicate assays
# Method: as §1
# P. aeruginosa ISR14-003 = assay: In vitro antibacterial assay (MIC); type: cell-based, Pseudomonas aeruginosa; settings: iron deficient media, duplicate assays
# Method: as §1
# P. aeruginosa 01 = assay: In vitro antibacterial assay (MIC); type: cell-based, Pseudomonas aeruginosa; settings: iron deficient media, duplicate assays
# Method: as §1
# P. aeruginosa ARC 3502 = assay: In vitro antibacterial assay (MIC); type: cell-based, Pseudomonas aeruginosa; settings: iron deficient media, duplicate assays
# Method: as §1
# P. aeruginosa ISR14-004 = assay: In vitro antibacterial assay (MIC); type: cell-based, Pseudomonas aeruginosa; settings: iron deficient media, duplicate assays
# Method: as §1
# S. aureus SG511 = assay: In vitro antibacterial assay (MIC); type: cell-based; settings: iron deficient media, duplicate assays
# Method: as §1
# E. aerogenes X816 = assay: In vitro antibacterial assay (MIC); type: cell-based; settings: iron deficient media, duplicate assays
# Method: as §1
# C. freundii ATCC 19063 = assay: In vitro antibacterial assay (MIC); type: cell-based; settings: iron deficient media, duplicate assays
# Method: as §1
# [6] = system: K. pneumoniae ATCC 8303 X68; assay: In vitro antibacterial assay (MIC); type: cell-based; settings: duplicate assays
# Method: as §1
# B. dolosa AU0018 = assay: In vitro antibacterial assay (MIC); type: cell-based
# Method: as §1
# P. mirabilis X235 = assay: In vitro antibacterial assay (MIC); type: cell-based; settings: iron deficient media, duplicate assays
# Method: as §1
# P. aeruginosa KW799/wt = assay: In vitro antibacterial assay (MIC); type: cell-based, Pseudomonas aeruginosa; settings: iron deficient media, duplicate assays
# Method: as §1
# [7] = A. baumannii ATCC 17978 pNT320, cephalosporinase producing
# [8] = Acinetobacter baumannii, ATCC17978, A. baumannii ATCC 17978 pNT320, cephalosporinase producing
# [9] = Acinetobacter baumannii, ATCC17961, iron deficient media
# [10] = Acinetobacter baumannii, BAA1797, iron deficient media
# [11] = Acinetobacter baumannii, ATCC17978, A. baumannii ATCC 17978 pNT165, carbapenemase producing
# [12] = Pseudomonas aeruginosa, ISR14003, P. aeruginosa ISR14-003, read-out: MIC
# [13] = Pseudomonas aeruginosa, 01, P. aeruginosa 01
# [14] = Pseudomonas aeruginosa, ARC3502, P. aeruginosa ARC 3502, read-out: MIC
# [15] = P. aeruginosa ISR14-004, read-out: MIC
# [16] = Pseudomonas aeruginosa, ISR14004, P. aeruginosa ISR14-004, read-out: MIC
# [17] = Klebsiella aerogenes, X816, E. aerogenes X816
# [18] = Citrobacter freundii, ATCC19063, C. freundii ATCC 19063
# [19] = Klebsiella pneumoniae, ATCC8303, iron deficient media
# [20] = Proteus mirabilis, X235, P. mirabilis X235
# [21] = Pseudomonas aeruginosa, KW799/WT
SMILES,MIC (E. coli DCO; Escherichia coli),activity compared to bis-catechol conjugate 23 (Gram-negative bacteria [2]),activity against Gram-negative bacteria that are resistant to aztreonam (Gram-negative bacteria [2]),"MIC [3, 7]","MIC [3, 8]",MIC (A. baumannii ATCC 17961; [9]),"MIC [4, 10]","MIC [5, 11]",MIC (P. aeruginosa ISR14-003; [12]),MIC (P. aeruginosa 01; P. aeruginosa 01),MIC (P. aeruginosa 01; [13]),MIC (P. aeruginosa ARC 3502; [14]),MIC (P. aeruginosa ISR14-004; [15]),MIC (P. aeruginosa ISR14-004; [16]),MIC (S. aureus SG511; Staphylococcus aureus),MIC (E. aerogenes X816; [17]),MIC (C. freundii ATCC 19063; [18]),"MIC [6, 19]",MIC (P. mirabilis X235; [20]),MIC (P. aeruginosa KW799/wt),also measured
CC1(C)[C@H](NC(=O)/C(=N\OCc2cc(=O)c(O)cn2O)c2csc(N)n2)C(=O)N1OS(=O)(=O)O [BAL 30072],–,–,–,–,–,–,–,–,–,–,–,–,–,–,–,–,–,–,–,–,in vitro activity (Gram-negative bacteria [1]; compounds without free carboxylic acids): retained potent in vitro activity
"C[C@H]1[C@H](NC(=O)/C(=N\OC(C)(C)C(=O)NCCNC(=O)CN(CCCCNC(=O)c2cccc(O)c2O)C(=O)c2cccc(O)c2O)c2csc(N)n2)C(=O)N1S(=O)(=O)O [Compound 27, (2S,3S)-3-((Z)-18-(2-Aminothiazol-4-yl)-7-(2,3-dihydroxybenzoyl)-1-(2,3-dihydroxy-phenyl)-15,15-dimethyl-1,9,14-trioxo-16-oxa-2,7,10,13,17-pentaazanonadec-17-en-19-amido)-2-methyl-4-oxoazetidine-1-sulfonic acid]",0.025 µM,comparable to or better than,notably and unexpectedly active,0.8 µM,1.6 µM,0.8 µM,3 µM,6 µM,0.8 µM,0.6 µM,0.8 µM,0.8 µM,0.2 µM,0.4 µM,> 25 µM,0.05 µM,0.4 µM,0.05 µM,< 0.013 µM,–,"MIC ([5]; A. baumannii ATCC 17978 pNT165, carbapenemase producing): 6.25 µM; MIC (P. aeruginosa ISR14-003; P. aeruginosa ISR14-003, read-out: MIC): 0.4 µM; MIC (P. aeruginosa ARC 3502; P. aeruginosa ARC 3502, read-out: MIC): 1.6 µM; MIC (B. dolosa AU0018; Burkholderia dolosa, AU0018): > 25 µM"
C[C@H]1[C@H](NC(=O)/C(=N\OC(C)(C)C(=O)NCCNC(=O)CN(CCCCNC(=O)c2ccc(O)c(O)c2Cl)C(=O)c2ccc(O)c(O)c2Cl)c2csc(N)n2)C(=O)N1S(=O)(=O)O [Compound 37],0.4 µM,comparable to or better than,notably and unexpectedly active,–,0.4 µM,0.8 µM,0.8 µM,25 µM,0.4 µM,–,1.2 µM,4.5 µM,–,0.2 µM,–,0.8 µM,< 0.025 µM,0.2 µM,< 0.025 µM,–,MIC (P. aeruginosa KW799/wt; [21]): 0.2 µM
"CCN(C(C)C)C(C)C.C[C@H]1[C@H](NC(=O)/C(=N\OC(C)(C)C(=O)NOCC(=O)O)c2csc(N)n2)C(=O)N1S(=O)(=O)O [Compound 32, (Z)-2-(2-Aminothiazol-4-yl)-5,5-dimethyl-1-(((2S,3S)-2-methyl-4-oxo-1-sulfoazetidin-3-yl)amino)-1,6-dioxo-4,8-dioxa-3,7-diazadec-2-en-10-oic acid DIPEA salt]",–,–,–,>25 µM,–,–,–,–,–,–,–,–,–,–,–,–,–,–,–,25 µM,"MIC (E. coli DCO): 1.6 µM; activity compared to aztreonam (9a) (Gram-negative bacteria [2]): activity comparable to that of aztreonam; MIC (A. baumannii ATCC 17961; iron deficient media): >25 µM; MIC ([4]; iron deficient media): >25 µM; MIC (P. aeruginosa ISR14-003; P. aeruginosa ISR14-003): >25/(>25) μM; MIC (P. aeruginosa ARC 3502; P. aeruginosa ARC 3502): >25/(>25) μM; MIC (P. aeruginosa ISR14-004; P. aeruginosa ISR14-004): >25/(25) μM; MIC (S. aureus SG511): >25 µM; MIC (E. aerogenes X816; E. aerogenes X816): 3 µM; MIC (C. freundii ATCC 19063; C. freundii ATCC 19063): 3 µM; MIC ([6]; iron deficient media): 0.8 µM; MIC (B. dolosa AU0018; B. dolosa AU0018, iron deficient media, duplicate assays): >25/(>25) μM; MIC (P. mirabilis X235; P. mirabilis X235): 0.05 µM"
"C[C@H]1[C@H](NC(=O)/C(=N\OC(C)(C)C(=O)NOCC(=O)NCCNC(=O)CN(CCCCNC(=O)c2cccc(O)c2O)C(=O)c2cccc(O)c2O)c2csc(N)n2)C(=O)N1S(=O)(=O)O [Compound 30, (2S,3S)-3-((Z)-22-(2-Aminothiazol-4-yl)-7-(2,3-dihydroxybenzoyl)-1-(2,3-dihydroxyphenyl)-19,19-dimethyl-1,9,14,18-tetraoxo-16,20-dioxa-2,7,10,13,17,21-hexaazatricos-21-en-23-amido)-2-methyl-4-oxoazetidine-1-sulfonic acid]",0.025 µM,comparable to or better than,notably and unexpectedly active,1.6 µM,3 µM,0.8 µM,1.6 µM,–,0.8 µM,0.4 µM,0.8 µM,–,–,–,> 25 µM,0.05 µM,0.4 µM,0.05 µM,< 0.013 µM,0.4 µM,"MIC (P. aeruginosa KW799/wt; [21]): 0.8 µM; MIC (B. dolosa AU0018; Burkholderia dolosa, AU0018): > 25 µM"
"C[C@H]1[C@H](NC(=O)/C(=N\OC(C)(C)C(=O)O)c2csc(N)n2)C(=O)N1S(=O)(=O)O [Aztreonam 9a, aztreonam, reference compound]",–,–,–,–,> 25 µM,> 25 µM,> 25 µM,> 25 µM,–,–,–,> 25 µM,6 µM,–,> 25 µM,1.6 µM,–,0.2 µM,–,3 µM,"activity against problematic Gram-negative bacteria (Gram-negative bacteria [1]; including carbapenemase and cephalosporinase producing strains of P. aeruginosa and A. baumannii): not active; MIC (E. aerogenes X816; E. aerogenes X816): 0.8 µM; MIC (B. dolosa AU0018; Burkholderia dolosa, B. dolosa AU0018, iron deficient media, duplicate assays, read-out: MIC): > 25 µM"
